pIC50: −log10 of the molar value.
The compounds below were run against rhSYK (Homo sapiens, UniProt P43405) (assay: not given). Conditions: read-out: rhSYK Activity; Table 117.

pIC50 | Compound
> 7.00 | Cc1cc(Nc2nccc(C(F)(F)F)n2)cc(-c2cnc(C(C)(O)c3ccc(C(N)=O)cc3)s2)c1 (single isomer, unassigned) [Example 117-21]

Same assay, conditions: read-out: rhSYK Activity; Table 119; two symbols in a cell = one per listed form

pIC50 | Compound
> 7.00 | Cc1cc(Nc2nccc(C(F)(F)F)n2)cc(-c2cnc(C3(O)CCC(C(N)=O)C3)s2)c1 (single isomer, unassigned) [Example 119-1]
> 7.00 | Cc1cc(Nc2nccc(C(F)(F)F)n2)cc(-c2cnc(C3(O)CCC(C(N)=O)C3)s2)c1 (single isomer, unassigned) [Example 119-3]
> 7.00 | Cc1cc(Nc2nccc(C(F)(F)F)n2)cc(-c2cnc(C3(O)CCC(C(N)=O)C3)s2)c1 (single isomer, unassigned) [Example 119-4]
> 7.00 | Cc1cc(Nc2nccc(C)n2)cc(-c2cnc(C3(O)CCC(C(N)=O)C(C)C3)s2)c1 (single isomer, unassigned) [Example 119-6]
> 7.00 | Cc1cc(Nc2nccc(C(F)(F)F)n2)cc(-c2cnc(C3(O)CCC(C(N)=O)C(C)C3)s2)c1 (single isomer, unassigned) [Example 119-112]

Same assay, conditions: read-out: rhSYK Activity; class symbol; where two forms are listed, one symbol per form

pIC50 | Compound
> 7.00 | Cc1cc(Nc2nccc(C(F)(F)F)n2)cc(-c2cnc(C(C)(O)c3cccc(C(=O)O)c3)s2)c1 (single isomer, unassigned) [Example 4A-54]
> 7.00 | Cc1cc(Nc2nccc(C(F)(F)F)n2)cc(-c2cnc(C(C)(O)c3cccc(C(=O)O)c3)s2)c1 (single isomer, unassigned) [Example 4A-55]
> 7.00 | Cc1cc(Nc2nccc(C(F)(F)F)n2)cc(-c2cnc(C(C)(O)c3ccc(CC(=O)O)cc3)s2)c1 (single isomer, unassigned) [Example 4A-59]
> 7.00 | Cc1cc(Nc2nccc(C(F)(F)F)n2)cc(-c2cnc(C(C)(O)c3ccc(CC(=O)O)cc3)s2)c1 (single isomer, unassigned) [Example 4A-60]
> 7.00 | COc1cc(C(C)(O)c2ncc(-c3cc(C)cc(Nc4nccc(C(F)(F)F)n4)c3)s2)ccc1C(=O)O (single isomer, unassigned) [Example 4A-65]
> 7.00 | COc1cc(C(C)(O)c2ncc(-c3cc(C)cc(Nc4nccc(C(F)(F)F)n4)c3)s2)ccc1C(=O)O (single isomer, unassigned) [Example 4A-66]
> 7.00 | Cc1cc(Nc2nccc(C(F)(F)F)n2)cc(-c2cnc(C(C)(O)c3ccc(Br)nc3)s2)c1 (single isomer, unassigned) [Example 4A-68]
> 7.00 | Cc1cc(Nc2nccc(C(F)(F)F)n2)cc(-c2cnc(C(C)(O)c3ccc(Br)nc3)s2)c1 (single isomer, unassigned) [Example 4A-69]
> 7.00 | Cc1cc(Nc2nccc(C(F)(F)F)n2)cc(-c2cnc(C(O)(CO)C(F)(F)F)s2)c1 (single isomer, unassigned) [Example 6-8]
> 7.00 | Cc1cc(Nc2nccc(C(F)(F)F)n2)cc(-c2cnc(C(O)(CO)C(F)(F)F)s2)c1 (single isomer, unassigned) [Example 6-9]
> 7.00 | O=C(c1ccccc1)N1CCC(O)(c2ncc(-c3cccc(Nc4nccc(C(F)(F)F)n4)c3)s2)CC1 [4D-6]

Same assay, conditions: read-out: rhSYK activity; class symbol given

pIC50 | Compound
> 7.00 | Cc1cc(Nc2nccc(C(F)(F)F)n2)cc(-c2cnc(C3(O)CCC(C(=O)O)CC3)s2)c1 (single isomer, unassigned) [33(1), trans-4-hydroxy-4-[5-(3-methyl-5-{[4-(trifluoromethyl)pyrimidin-2-yl]amino}phenyl)-1,3-thiazol-2-yl]cyclohexanecarboxylic acid]
> 7.00 | Cc1cc(Nc2nccc(C(F)(F)F)n2)cc(-c2cnc(C3(O)CCC(C(=O)O)CC3)s2)c1 (single isomer, unassigned) [33(2), cis-4-hydroxy-4-[5-(3-methyl-5-{[4-(trifluoromethyl)pyrimidin-2-yl]amino}phenyl)-1,3-thiazol-2-yl]cyclohexanecarboxylic acid]
> 7.00 | Cc1cc(Nc2nccc(C(F)(F)F)n2)cc(-c2cnc(C3(O)CCC(O)CC3)s2)c1 (stereo not drawn) [8(2), trans-1-[5-(3-methyl-5-{[4-(trifluoromethyl)pyrimidin-2-yl]amino}phenyl)-1,3-thiazol-2-yl]-cyclohexane-1,4-diol]

What follows are compounds tested against recombinant human SYK (GST-hSYK fusion protein) (Homo sapiens, UniProt P43405) (assay: biochemical). Conditions: Syk IC50, HTRF, recombinant human GST-SYK.
From the text: Homogeneous Time-Resolved Fluorescence (HTRF) Assay for the Recombinant Human SYK Enzyme:

pIC50 | Compound
6.53 | Cc1cc(Nc2nccc(C(F)(F)F)n2)cc(-c2cnc(C3CCC4(CC3)OCCO4)s2)c1 [N-{3-[2-(1,4-diaxaspiro[4.5]dec-8-yl)-1,3-thiazol-5-yl]-5-methylphenyl}-4-(trifluoromethyl)pyrimidin-2-amine]
6.67 | Cc1cc(Nc2nccc(C(F)(F)F)n2)cc(-c2cnc(C3(O)CCCN(CC(=O)O)CC3)s2)c1 (centres unmarked) [{4-hydroxy-4-[5-(3-methyl-5-{[4-(trifluoromethyl)pyrimidin-2-yl]amino}phenyl)-1,3-thiazol-2-yl]azepan-1-yl)acetic acid]

Same assay, conditions: rhSYK Activity (IC50), recombinant human GST-SYK 5 pM, ATP 25 μM, biotinylated substrate peptide 250 nM, HTRF, 10-dose titration

pIC50 | Compound
> 7.00 | Cc1cc(Nc2nccc(C(F)(F)F)n2)cc(-c2cnc(C3CCS(=O)(=O)CC3)s2)c1 [Example 137, N-{3-[2-(1,1-dioxidotetrahydro-2H-thiopyran-4-yl)-1,3-thiazol-5-yl]-5-methylphenyl}-4-(trifluoromethyl)pyrimidin-2-amine]
6.00 to 7.00 | Cc1cc(Nc2nccc(C(F)(F)F)n2)cc(-c2cnc(C34CCC(C(=O)O3)C(C)(C)C4)s2)c1 (stereo not drawn) [Example 139, Cis-5,5-dimethyl-1-[5-(3-methyl-5-{[4-(trifluoromethyl)pyrimidin-2-yl]amino}phenyl)-1,3-thiazol-2-yl]-2-oxabicyclo[2.2.2]octan-3-one]
> 7.00 | Cc1cc(Nc2nccc(C(F)(F)F)n2)cc(-c2cnc(C3(O)CCC(O)C4(CC4)C3)s2)c1 (centres unmarked) [Example 143(A), 7-[5-(3-methyl-5-{[4-(trifluoromethyl)pyrimidin-2-yl]amino}phenyl)-1,3-thiazol-2-yl]spiro[2.5]octane-4,7-diol]
> 7.00 | Cc1cc(Nc2nccc(C(F)(F)F)n2)cc(-c2cnc(C3(O)CC4(CC4)C(O)C4(CC4)C3)s2)c1 (centres unmarked) [Example 143(B), 9-[5-(3-methyl-5-{[4-(trifluoromethyl)pyrimidin-2-yl]amino}phenyl)-1,3-thiazol-2-yl]dispiro[2.1.2.3]decane-4,9-diol]
> 7.00 | Cc1cc(Nc2nccc(C(F)(F)F)n2)cc(-c2cnc(C3CCCCNC3=O)s2)c1 (centres unmarked) [Example 144, 3-[5-(3-methyl-5-{[4-(trifluoromethyl)pyrimidin-2-yl]amino}phenyl)-1,3-thiazol-2-yl]azepan-2-one]
> 7.00 | Cc1cc(Nc2nccc(C(F)(F)F)n2)cc(-c2cnc(/C=C/c3ccc(C(=O)O)cc3)s2)c1 [Example 147]
> 7.00 | Cc1cc(Nc2nccc(C(F)(F)F)n2)cc(-c2cnc(CCc3ccc(C(=O)O)cc3)s2)c1 [Example 148, 4-{2-[5-(3-methyl-5-{[4-(trifluoromethyl)pyrimidin-2-yl]amino}phenyl)-1,3-thiazol-2-yl]ethyl}benzoic acid]
> 7.00 | Cc1cc(Nc2nccc(C(F)(F)F)n2)cc(-c2cnc(C(C)(O)c3ccc(C(=O)O)nc3)s2)c1 (centres unmarked) [Example 149, 5-{1-Hydroxy-1-[5-(3-methyl-5-{[4-(trifluoromethyl)pyrimidin-2-yl]amino}phenyl)-1,3-thiazol-2-yl]ethyl}pyridine-2-carboxylic acid]
> 7.00 | Cc1cc(Nc2nccc(C(F)(F)F)n2)cc(-c2cnc(C(C)(O)c3ccc(C(=O)O)cn3)s2)c1 (centres unmarked) [Example 150, 6-{1-Hydroxy-1-[5-(3-methyl-5-{[4-(trifluoromethyl)pyrimidin-2-yl]amino}phenyl)-1,3-thiazol-2-yl]ethyl}pyridine-3-carboxylic acid]
> 7.00 | Cc1cc(Nc2nccc(C)n2)cc(-c2cnc([C@@]3(O)CC[C@H](C(=O)O)C(C)(C)C3)s2)c1 [Example 152, (1S,4R)-4-Hydroxy-2,2-dimethyl-4-{5-[3-methyl-5-(4-methyl-pyrimidin-2-ylamino)-phenyl]-1,3-thiazol-2-yl}-cyclohexanecarboxylic acid]
> 7.00 | Cc1cc(Nc2nccc(C(F)(F)F)n2)cc(-c2cnc(C3(O)CCC/C(=N\O)C3(C)C)s2)c1 (centres unmarked) [Example 156, (3E)-3-(Hydroxyimino)-2,2-dimethyl-1-[5-(3-methyl-5-{[4-(trifluoromethyl)pyrimidin-2-yl]amino}phenyl)-1,3-thiazol-2-yl]cyclohexanol]
> 7.00 | Cc1cc(Nc2nccc(-c3cnn(CC(C)(C)O)c3)n2)cc(-c2cnc(C3(O)CCC3)s2)c1 [Example 157, 1-{5-[3-({4-[1-(2-hydroxy-2-methylpropyl)-1H-pyrazol-4-yl]pyrimidin-2-yl}amino)-5-methylphenyl]-1,3-thiazol-2-yl}cyclobutanol]
> 7.00 | Cc1cc(Nc2nccc(OCCO)n2)cc(-c2cnc(C(O)(CO)CO)s2)c1 [Example 158, 2-[5-(3-{[4-(2-hydroxyethoxy)pyrimidin-2-yl]amino}-5-methylphenyl)-1,3-thiazol-2-yl]propane-1,2,3-triol]
> 7.00 | Cc1cc(Nc2nccc(OCCO)n2)cc(-c2cnc(C3(O)CCC(C(=O)O)C(C)(C)C3)s2)c1 (centres unmarked) [Example 159, 4-hydroxy-4-[5-(3-{[4-(2-hydroxyethoxy)pyrimidin-2-yl]amino}-5-methylphenyl)-1,3-thiazol-2-yl]-2,2-dimethylcyclohexanecarboxylic acid]
> 7.00 | Cc1cc(Nc2nccc(C(F)(F)F)n2)cc(-c2cnc(C3(N)CCNC(=O)CC3)s2)c1 (centres unmarked) [Example 162, 5-amino-5-[5-(3-methyl-5-{[4-(trifluoromethyl)pyrimidin-2-yl]amino}phenyl)-1,3-thiazol-2-yl]azepan-2-one]

Compound | pIC50
CCOP(=O)(OCC)[C@]1(O)CC[C@@](O)(c2ncc(-c3cc(C)cc(Nc4nccc(C(F)(F)F)n4)c3)s2)CC1 [Example 155(A), Diethyl{cis-1,4-dihydroxy-4-[5-(3-methyl-5-{[4-(trifluoromethyl)pyrimidin-2-yl]amino}phenyl)-1,3-thiazol-2-yl]cyclohexyl}phosphonate] | > 7.00
